Several values for one entry are separate records, joined by “and”; a condition that tells them apart may be missing. Equal entries are not always repeated. Toxic doses and inconclusive results are not listed.
Test system: P388 leukemia ip, CD2F1 mice, survival T/C
Test: NCI In Vivo Anticancer Drug Screen. Data for tumor model P388 Leukemia (intraperitoneal) in CD2F1 (CDF1) mice
Conditions: endpoint: median survival time, higher = longer survival
Summary of the method: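 Mice carrying the transplanted tumor received test compound or vehicle. Survival was recorded in each group, and the value is the treated-group measurement divided by that of the vehicle-treated control group.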

[1] = dose: 60.0 mg/kg/injection, schedule: Q01DX005 (ip), vehicle: Klucel (hydroxypropylcellulose) (HPC)
[2] = dose: 120.0 mg/kg/injection, schedule: Q01DX005 (ip), vehicle: Klucel (hydroxypropylcellulose) (HPC)
[3] = dose: 240.0 mg/kg/injection, schedule: Q01DX005 (ip), vehicle: Klucel (hydroxypropylcellulose) (HPC)
[4] = dose: 50.0 mg/kg/injection, schedule: Q01DX009 (ip), vehicle: Klucel (hydroxypropylcellulose) (HPC)
[5] = dose: 100.0 mg/kg/injection, schedule: Q01DX009 (ip), vehicle: Klucel (hydroxypropylcellulose) (HPC)
[6] = dose: 200.0 mg/kg/injection, schedule: Q01DX009 (ip), vehicle: Klucel (hydroxypropylcellulose) (HPC)
[7] = dose: 50.0 mg/kg/injection, schedule: Q01DX005 (ip), vehicle: saline with Tween-80
[8] = dose: 100.0 mg/kg/injection, schedule: Q01DX005 (ip), vehicle: saline with Tween-80
[9] = dose: 200.0 mg/kg/injection, schedule: Q01DX005 (ip), vehicle: saline with Tween-80
[10] = dose: 60.0 mg/kg/injection, schedule: Q01DX005 (ip), vehicle: saline with Tween-80
[11] = dose: 120.0 mg/kg/injection, schedule: Q01DX005 (ip), vehicle: saline with Tween-80
[12] = dose: 240.0 mg/kg/injection, schedule: Q01DX005 (ip), vehicle: saline with Tween-80
[13] = dose: 50.0 mg/kg/injection, schedule: Q01DX005 (ip), vehicle: Klucel (hydroxypropylcellulose) (HPC)
[14] = dose: 100.0 mg/kg/injection, schedule: Q01DX005 (ip), vehicle: Klucel (hydroxypropylcellulose) (HPC)
[15] = dose: 200.0 mg/kg/injection, schedule: Q01DX005 (ip), vehicle: Klucel (hydroxypropylcellulose) (HPC)
[16] = dose: 50.0 mg/kg/injection, schedule: Q01DX009 (ip), vehicle: saline with Tween-80
[17] = dose: 60.0 mg/kg/injection, schedule: Q01DX005 (ip), vehicle: saline
[18] = dose: 120.0 mg/kg/injection, schedule: Q01DX005 (ip), vehicle: saline
[19] = dose: 100.0 mg/kg/injection, schedule: Q01DX009 (ip), vehicle: saline with Tween-80
[20] = dose: 200.0 mg/kg/injection, schedule: Q01DX009 (ip), vehicle: saline with Tween-80

CC(C)[Si]1(C(C)C)N[Si](C(C)C)(C(C)C)N[Si](C(C)C)(C(C)C)N1
T/C [1]: 108 % of control
T/C [2]: 93 % of control
T/C [3]: 100 % of control

NC(=O)NC1CCCCCC1
T/C (dose: 100.0 mg/kg/injection, schedule: Q04DX003 (ip), vehicle: saline with Tween-80): 100 % of control
T/C (dose: 200.0 mg/kg/injection, schedule: Q04DX003 (ip), vehicle: saline with Tween-80): 100 % of control
T/C (dose: 400.0 mg/kg/injection, schedule: Q04DX003 (ip), vehicle: saline with Tween-80): 109 % of control

CCCCN(CCCC)C(=S)C(O)(c1ccccc1)c1ccccc1
T/C [4]: 95 % of control
T/C [5]: 91 % of control
T/C [6]: 90 % of control

Cn1c(=O)ccc2c(=O)c3c(ccc4ccccc43)oc21
T/C [7]: 94 % of control
T/C [8]: 92 % of control
T/C [9]: 91 % of control

CC1=NN(C(=O)NS(=O)(=O)c2ccc(CCNC(=O)c3nccnc3N)cc2)CC1
T/C [7]: 96 % of control
T/C [8]: 105 % of control
T/C [9]: 105 % of control

O=c1c2ccccc2c(Br)c(Br)c2ccccc12
T/C [10]: 106 % of control
T/C [11]: 110 % of control
T/C [12]: 109 % of control

CCC1CC(C(=O)O)CC(=O)N1 (stereo unspecified)
T/C (dose: 17.5 mg/kg/injection, schedule: Q01DX005 (ip), vehicle: Klucel (hydroxypropylcellulose) (HPC)): 92 % of control
T/C (dose: 35.0 mg/kg/injection, schedule: Q01DX005 (ip), vehicle: Klucel (hydroxypropylcellulose) (HPC)): 90 % of control
T/C (dose: 70.0 mg/kg/injection, schedule: Q01DX005 (ip), vehicle: Klucel (hydroxypropylcellulose) (HPC)): 97 % of control

O=C1c2c(O)cccc2-c2nn(CCNCCO)c3ccc(NCCNCCO)c1c23
T/C (dose: 3.12 mg/kg/injection, schedule: Q04DX002 (ip), vehicle: water): 171 % of control
T/C (dose: 6.25 mg/kg/injection, schedule: Q04DX002 (ip), vehicle: water): 183 % of control
T/C (dose: 12.5 mg/kg/injection, schedule: Q04DX002 (ip), vehicle: water): 228 % of control and 235 % of control
T/C (dose: 25.0 mg/kg/injection, schedule: Q04DX002 (ip), vehicle: water): 184 % of control and 285 % of control and 588 % of control
T/C (dose: 50.0 mg/kg/injection, schedule: Q04DX002 (ip), vehicle: water): 88 % of control
T/C (dose: 100.0 mg/kg/injection, schedule: Q04DX002 (ip), vehicle: water): 190 % of control

CN(C)c1ccc(C=Nc2ccc3ccc4cccc5ccc2c3c45)cc1
T/C [4]: 101 % of control
T/C [5]: 102 % of control
T/C [6]: 102 % of control

NC(=O)c1cccn(-c2ccccc2)c1=S
T/C [13]: 89 % of control
T/C [14]: 105 % of control
T/C [15]: 105 % of control

COc1cc2c(cc1OC)[C@H](C(=O)O)C(c1ccc3c(c1)OCO3)N(C)C2=O (stereo partly specified)
T/C [13]: 95 % of control
T/C [14]: 103 % of control
T/C [15]: 88 % of control

Nc1nc2c(c(=O)[nH]1)N(C(=O)c1ccc(S(=O)(=O)F)cc1)C(CNc1ccc(C(=O)NC(CCC(=O)O)C(=O)O)cc1)CN2 (stereo unspecified)
T/C (dose: 50.0 mg/kg/injection, schedule: Q04DX003 (ip), vehicle: other): 104 % of control
T/C (dose: 100.0 mg/kg/injection, schedule: Q04DX003 (ip), vehicle: other): 104 % of control
T/C (dose: 200.0 mg/kg/injection, schedule: Q04DX003 (ip), vehicle: other): 113 % of control

COc1cccc(/C=C\C(=O)c2ccccc(=O)c2O)c1OC
T/C (dose: 25.0 mg/kg/injection, schedule: Q01DX005 (ip), vehicle: Klucel (hydroxypropylcellulose) (HPC)): 106 % of control
T/C [13]: 101 % of control
T/C [14]: 114 % of control
T/C [15]: 107 % of control

CSC1=N[N+]2=C(C)c3ccccc3O[B-]2(c2ccccc2)S1 (stereo unspecified)
T/C [7]: 96 % of control
T/C [8]: 92 % of control
T/C [9]: 87 % of control

CC1C(=O)OC(C(Cl)(Cl)Cl)N1C (stereo unspecified)
T/C [10]: 97 % of control
T/C [11]: 97 % of control
T/C [12]: 94 % of control

S=c1sc2cccnc2s1
T/C (dose: 12.5 mg/kg/injection, schedule: Q01DX009 (ip), vehicle: saline with Tween-80): 99 % of control
T/C (dose: 25.0 mg/kg/injection, schedule: Q01DX009 (ip), vehicle: saline with Tween-80): 100 % of control
T/C [16]: 104 % of control and 111 % of control

C=C1C(=O)OC2C(OC(=O)CC(C)C)CCCC12 (stereo unspecified)
T/C [1]: 94 % of control
T/C [2]: 92 % of control
T/C [3]: 92 % of control

Cc1cc(N2CCCCC2)cc(=O)o1
T/C [4]: 104 % of control
T/C [5]: 102 % of control

CN1C(=O)N(C)P123OP1(N(C)C(=O)N1C)(N(C)C(=O)N2C)N(C)C(=O)N3C
T/C [17]: 103 % of control
T/C [18]: 97 % of control
T/C (dose: 240.0 mg/kg/injection, schedule: Q01DX005 (ip), vehicle: saline): 89 % of control

CCCCc1ccc(Nc2ccc(Nc3ccc(CCCC)cc3S(=O)(=O)O)c3c2C(=O)c2ccccc2C3=O)c(S(=O)(=O)O)c1
T/C [16]: 94 % of control
T/C [19]: 90 % of control
T/C [20]: 94 % of control

OCC(Cl)Cc1cnc[nH]1 (stereo unspecified)
T/C [16]: 102 % of control
T/C [19]: 99 % of control
T/C [20]: 93 % of control

O=C(O)CN(CCN1CC(=O)OC(=O)C1)CCN1CC(=O)OC(=O)C1
T/C [17]: 102 % of control
T/C [18]: 97 % of control

C=C(/C=C/CCCC)NC(=O)OCc1ccccc1
T/C [10]: 97 % of control
T/C [11]: 96 % of control
T/C [12]: 104 % of control

ON=C1c2cc(Cl)ccc2-c2ccc(Cl)cc21
T/C (dose: 6.25 mg/kg/injection, schedule: Q01DX009 (ip), vehicle: saline): 100 % of control
T/C (dose: 12.5 mg/kg/injection, schedule: Q01DX009 (ip), vehicle: saline): 97 % of control
T/C (dose: 25.0 mg/kg/injection, schedule: Q01DX009 (ip), vehicle: saline): 94 % of control
T/C (dose: 50.0 mg/kg/injection, schedule: Q01DX009 (ip), vehicle: saline): 90 % of control

C=CCOc1cc2c(cc1C(C)c1ccc(OC)c(C)c1)OCO2 (stereo unspecified)
T/C [7]: 100 % of control
T/C [8]: 95 % of control
T/C [9]: 120 % of control

COC(=O)c1cc(C)c(C)cc1NC1OC(CO)C(O)C1O (stereo unspecified)
T/C [10]: 101 % of control
T/C [11]: 95 % of control
T/C [12]: 97 % of control

CCCCCCCC/C=C\CCCCCCCC(=O)OCC(COC(=O)CCCCCCC/C=C\CCCCCCCC)OC(=O)N(CCCl)CCCl
T/C (dose: 30.0 mg/kg/injection, schedule: Q01DX005 (ip), vehicle: saline with Tween-80): 118 % of control
T/C [10]: 115 % of control
T/C [11]: 174 % of control
T/C [12]: 205 % of control and 259 % of control

NC(=O)c1[nH]c(N=Nc2ccc(S(N)(=O)=O)cc2)nc1N
T/C (dose: 100.0 mg/kg/injection, schedule: Q04DX003 (ip), vehicle: Klucel (hydroxypropylcellulose) (HPC)): 100 % of control
T/C (dose: 200.0 mg/kg/injection, schedule: Q04DX003 (ip), vehicle: Klucel (hydroxypropylcellulose) (HPC)): 101 % of control
T/C (dose: 400.0 mg/kg/injection, schedule: Q04DX003 (ip), vehicle: Klucel (hydroxypropylcellulose) (HPC)): 94 % of control

COc1cc2c(cc1OC)C13CCN4CC5=CCOC6CC(=O)N2C1C6C5C3C4 (stereo unspecified) (tested in a mixture with another compound)
T/C (dose: 12.5 mg/kg/injection, schedule: Q01DX005 (ip), vehicle: saline): 90 % of control
T/C (dose: 25.0 mg/kg/injection, schedule: Q01DX005 (ip), vehicle: saline): 95 % of control
T/C (dose: 50.0 mg/kg/injection, schedule: Q01DX005 (ip), vehicle: saline): 98 % of control

CC(=O)OC(c1ccccc1)N(Cc1ccccc1)N=O (stereo unspecified)
T/C (dose: 12.5 mg/kg/injection, schedule: Q01DX009 (ip), vehicle: distilled water + Tween-80): 111 % of control
T/C (dose: 25.0 mg/kg/injection, schedule: Q01DX009 (ip), vehicle: distilled water + Tween-80): 111 % of control
T/C (dose: 50.0 mg/kg/injection, schedule: Q01DX009 (ip), vehicle: distilled water + Tween-80): 118 % of control
T/C (dose: 100.0 mg/kg/injection, schedule: Q01DX009 (ip), vehicle: distilled water + Tween-80): 117 % of control
T/C (dose: 200.0 mg/kg/injection, schedule: Q01DX009 (ip), vehicle: distilled water + Tween-80): 119 % of control
